Assay results from patent US11866450B2, “Modulators of Cystic Fibrosis Transmembrane Conductance regulator, pharmaceutical compositions, methods of treatment, and process for making the modulators” (priority 2018, dated 2024).

Target: CFTR-mediated chloride transport (Homo sapiens, UniProt P13569)
Assay type: cell-based
Settings: enteroid cells incubated with test compound 18-24 hours, acute 10 μM forskolin and 300 nM Compound III; for Max. Activity: % of chloride transport with 3 μM Compound A, 3 μM Compound II and 300 nM acute Compound III triple combination control
Protocol: Base medium (ADF+++) consisted of Advanced DMEM/Ham's F12, 2 mM Glutamax, 10 mM HEPES, […] penicillin/streptomycin.
Intestinal enteroid maintenance medium (IEMM) consisted of ADF+++, 1× B27 supplement, 1× N2 supplement, 1.25 mM N-acetyl cysteine, 10 mM Nicotinamide, 50 ng/mL hEGF, 10 nM Gastrin, 1 μg/mL hR-spondin-1, 100 ng/mL hNoggin, TGF-b type 1 inhibitor A-83-01, 100 μg/mL Primocin, 10 μM P38 MAPK inhibitor SB202190.
Bath 1 Buffer consisted of 1 mM MgCl2, 160 mM NaCl, 4.5 mM KCl, 10 mM HEPES, 10 mM Glucose, 2 mM CaCl2).
Chloride Free Buffer consisted of 1 mM Magnesium Gluconate, 2 mM Calcium Gluconate, 4.5 mM Potassium Gluconate, 160 mM Sodium Gluconate, 10 mM HEPES, 10 mM Glucose.
Bath1 Dye Solution consisted of Bath 1 Buffer, 0.04% Pluronic F127, 20 μM Methyl Oxonol, 30 μM CaCCinh-A01, 30 μM Chicago Sky Blue.
Chloride Free Dye Solution consisted of Chloride Free Buffer, 0.04% Pluronic F127, 20 μM Methyl Oxonol, 30 μM CaCCinh-A01, 30 μM Chicago Sky Blue.
Chloride Free Dye Stimulation Solution consisted of Chloride Free Dye Solution, 10 μM forskolin, 100 μM IBMX, and 300 nM Compound III.
Human intestinal epithelial enteroid cells were obtained from the Hubrecht Institute for Developmental Biology and Stem Cell Research, Utrecht, The Netherlands and expanded in T-Flasks as previously described (Dekkers J F, Wiegerinck C L, de Jonge H R, Bronsveld I, Janssens H M, de Winter-de Groot K M, Brandsma A M, de Jong N W M, Bijvelds M J C, Scholte B J, Nieuwenhuis E E S, van den Brink S, Clevers H, van der Ent C K, Middendorp S and M Beekman J M. A functional CFTR assay using primary cystic fibrosis intestinal organoids. Nat Med. 2013 July; 19(7):939-45).
Cells were recovered in cell recovery solution, collected by centrifugation at 650 rpm for 5 min at 4° C., resuspended in TryPLE and incubated for 5 min at 37° C. Cells were then collected by centrifugation at 650 rpm for 5 min at 4° C. and resuspended in IEMM containing 10 μM ROCK inhibitor (RI) (trans-4-[(1R)-1-aminoethyl]-N-4-pyridinylcyclohexanecarboxamide). The cell suspension was passed through a 40 μm cell strainer and resuspended at 1×10^6 cells/mL in IEMM containing 10 μM RI. Cells were seeded at 5000 cells/well into multi-well plates and incubated for overnight at 37° C., 95% humidity and 5% CO2 prior to assay.
Enteroid cells were incubated with test compound in IEMM for 18-24 hours at 37° C., 95% humidity and 5% CO2. Following compound incubations, a membrane potential dye assay was employed using a FLIPR Tetra to directly measure the potency and efficacy of the test compound on CFTR-mediated chloride transport following acute addition of 10 μM forskolin and 300 nM Compound III. Briefly, cells were washed 5 times in Bath 1 Buffer. Bath 1 Dye Solution was added and the cells were incubated for 25 min at room temperature. Following dye incubation, cells were washed 3 times in Chloride Free Dye Solution. Chloride transport was initiated by addition of Chloride Free Dye Stimulation Solution and the fluorescence signal was read for 15 min. The CFTR-mediated chloride transport for each condition was determined from the AUC of the fluorescence response to acute forskolin and 300 nM Compound III stimulation. Chloride transport was then expressed as a percentage of the chloride transport following treatment with 3 μM Compound A, 3 μM Compound II and 300 nM acute Compound III triple combination control (% Activity).

Chain of CFTR-mediated chloride transport (P13569 whole entry, looked up): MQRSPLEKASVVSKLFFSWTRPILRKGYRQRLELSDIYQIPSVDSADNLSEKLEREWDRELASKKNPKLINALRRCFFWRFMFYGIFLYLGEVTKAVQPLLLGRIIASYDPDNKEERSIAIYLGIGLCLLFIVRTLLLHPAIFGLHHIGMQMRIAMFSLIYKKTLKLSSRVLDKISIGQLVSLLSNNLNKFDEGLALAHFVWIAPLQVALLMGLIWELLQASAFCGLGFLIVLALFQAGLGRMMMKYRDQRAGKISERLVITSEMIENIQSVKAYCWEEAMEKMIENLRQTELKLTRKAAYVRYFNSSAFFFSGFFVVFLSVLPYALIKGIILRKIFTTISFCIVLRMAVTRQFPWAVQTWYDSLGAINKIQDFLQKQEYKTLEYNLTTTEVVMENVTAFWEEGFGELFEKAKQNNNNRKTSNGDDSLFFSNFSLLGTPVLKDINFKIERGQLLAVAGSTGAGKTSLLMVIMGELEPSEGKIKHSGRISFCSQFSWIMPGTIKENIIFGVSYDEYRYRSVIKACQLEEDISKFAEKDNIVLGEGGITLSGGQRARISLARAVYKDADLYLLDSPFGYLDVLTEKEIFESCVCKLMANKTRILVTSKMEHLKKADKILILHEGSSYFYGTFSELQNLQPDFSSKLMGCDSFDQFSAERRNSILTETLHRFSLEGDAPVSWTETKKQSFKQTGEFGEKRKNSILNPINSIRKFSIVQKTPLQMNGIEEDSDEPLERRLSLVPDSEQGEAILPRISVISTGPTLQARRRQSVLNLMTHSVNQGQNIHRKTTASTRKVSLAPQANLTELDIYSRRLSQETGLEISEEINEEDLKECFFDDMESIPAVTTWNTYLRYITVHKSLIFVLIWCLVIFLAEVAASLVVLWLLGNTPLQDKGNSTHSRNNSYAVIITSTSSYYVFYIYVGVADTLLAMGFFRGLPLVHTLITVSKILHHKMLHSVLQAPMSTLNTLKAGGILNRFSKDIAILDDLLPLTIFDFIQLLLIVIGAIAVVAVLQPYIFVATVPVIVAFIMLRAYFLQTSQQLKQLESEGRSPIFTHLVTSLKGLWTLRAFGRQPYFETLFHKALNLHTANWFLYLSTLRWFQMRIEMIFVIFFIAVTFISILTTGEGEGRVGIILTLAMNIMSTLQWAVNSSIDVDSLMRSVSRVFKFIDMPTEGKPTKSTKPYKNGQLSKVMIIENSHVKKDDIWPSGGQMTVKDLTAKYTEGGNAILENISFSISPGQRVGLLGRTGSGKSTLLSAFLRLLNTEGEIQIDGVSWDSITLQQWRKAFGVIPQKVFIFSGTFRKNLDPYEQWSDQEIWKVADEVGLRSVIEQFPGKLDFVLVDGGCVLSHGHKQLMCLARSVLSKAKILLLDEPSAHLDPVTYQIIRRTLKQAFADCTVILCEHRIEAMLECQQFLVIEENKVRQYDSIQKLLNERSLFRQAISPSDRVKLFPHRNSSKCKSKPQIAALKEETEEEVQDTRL

CC1(C)C[C@@H]2CCCNc3cccc(n3)S(=O)(=O)NC(=O)c3ccc(N4CCN(CCCC5(C(F)(F)F)CC5)C4=O)nc3N1C2 [Compound 205, (14S)-12,12-Dimethyl-8-(2-oxo-3-{3-[1-(trifluoromethyl)cyclopropyl]propyl}imidazolidin-1-yl)-2λ^6-thia-3,9,11,18,23-pentaazatetracyclo[17.3.1.111,14.05,10]tetracosa-1(22),5,7,9,19(23),20-hexaene-2,2,4-trione]
EC50: < 1 µM
Max. Activity: +++ (+++ is >60%)

Cc1c2cnn1CCCC[C@H]1CN(c3nc(-n4ccc(OCCC5(C(F)(F)F)CC5)n4)ccc3C(=O)NS2(=O)=O)C(C)(C)C1 (single isomer, unassigned) [Compound 80, 21,21,23-Trimethyl-4-(3-{2-[1-(trifluoromethyl)cyclopropyl]ethoxy}-1H-pyrazol-1-yl)-10λ^6-thia-1,3,9,13,14-pentaazatetracyclo[17.2.1.111,14.02,7]tricosa-2,4,6,11(23),12-pentaene-8,10,10-trione]
EC50: > 3 µM
Max. Activity: + (+ is <30%)

CC(C)(C)CCC1CCN(c2ccc3c(n2)N2C[C@H](CCCn4ccc(n4)S(=O)(=O)NC3=O)CC2(C)C)C1=O (stereo in doubt) [Compound 184, 4-[3-(3,3-dimethylbutyl)-2-oxopyrrolidin-1-yl]-20,20-dimethyl-10λ^6-thia-1,3,9,14,22-pentaazatetracyclo[16.2.1.111,14.02,7]docosa-2,4,6,11(22),12-pentaene-8,10,10-trione]
EC50: 1 to 3 µM
Max. Activity: + (+ is <30%)

CN1CCCCC2CN(c3nc(-n4ccc(OCCC5(C(F)(F)F)CC5)n4)ccc3C(=O)NS(=O)(=O)c3ccc1nc3)C(C)(C)C2 (stereo not shown) [Compound 132, 12,12,19-trimethyl-8-(3-{2-[1-(trifluoromethyl)cyclopropyl]ethoxy}-1H-pyrazol-1-yl)-2λ^6-thia-3,9,11,19,21-pentaazatetracyclo[18.2.2.111,14.05,10]pentacosa-1(23),5,7,9,20(24),21-hexaene-2,2,4-trione]
EC50: < 1 µM
Max. Activity: ++ (++ is 30-60%)

CC1(C)C[C@@H]2CCCNc3cccc(n3)S(=O)(=O)NC(=O)c3ccc(N4CCN(CC56CC7CC(CC(C7)C5)C6)C4=O)nc3N1C2 [Compound 229, (14S)-8-{3-[(adamantan-1-yl)methyl]-2-oxoimidazolidin-1-yl}-12,12-dimethyl-2λ^6-thia-3,9,11,18,23-pentaazatetracyclo[17.3.1.111,14.05,10]tetracosa-1(22),5,7,9,19(23),20-hexaene-2,2,4-trione]
EC50: < 1 µM
Max. Activity: ++ (++ is 30-60%)

Cc1c2cnn1CCCC[C@H]1CN(c3nc(-n4ccc(OCCC5(C(F)(F)F)CC5)n4)ccc3C(=O)NS2(=O)=O)C(C)(C)C1 (single isomer, unassigned) [Compound 81, 21,21,23-trimethyl-4-(3-{2-[1-(trifluoromethyl)cyclopropyl]ethoxy}-1H-pyrazol-1-yl)-10λ^6-thia-1,3,9,13,14-pentaazatetracyclo[17.2.1.111,14.02,7]tricosa-2,4,6,11(23),12-pentaene-8,10,10-trione]
EC50: < 1 µM
Max. Activity: ++ (++ is 30-60%)

CC1(C)C[C@H]2CCCCc3cccc(c3)S(=O)(=O)NC(=O)c3ccc(-n4ccc(OCCC5(C(F)(F)F)CC5)n4)nc3N1C2 (single isomer, unassigned) [Compound 56, 12,12-dimethyl-8-(3-{2-[1-(trifluoromethyl)cyclopropyl]ethoxy}-1H-pyrazol-1-yl)-2λ^6-thia-3,9,11-triazatetracyclo[17.3.1.111,14.05,10]tetracosa-1(22),5,7,9,19(23),20-hexaene-2,2,4-trione]
EC50: < 1 µM
Max. Activity: + (+ is <30%)

CC1(C)CC[C@H]2CNc3cccc(n3)S(=O)(=O)NC(=O)c3ccc(-n4ccc(OCCC5(C(F)(F)F)CC5)n4)nc3N21 (single isomer, unassigned) [Compound 50, 7,7-dimethyl-11-(3-{2-[1-(trifluoromethyl)cyclopropyl]ethoxy}-1H-pyrazol-1-yl)-17λ^6-thia-2,8,10,16,22-pentaazatetracyclo[16.3.1.04,8.09,14]docosa-1(22),9,11,13,18,20-hexaene-15,17,17-trione]
EC50: > 3 µM
Max. Activity: + (+ is <30%)

CC1(C)C[C@@H]2CCCNc3cccc(n3)S(=O)(=O)NC(=O)c3ccc(N4CC[C@H](OCCC56CC7CC(CC(C7)C5)C6)C4=O)nc3N1C2 (single isomer, unassigned) [Compound 241]
EC50: < 1 µM
Max. Activity: ++ (++ is 30-60%)

CC1(C)CC[C@H]2CCCOc3cccc(c3)S(=O)(=O)NC(=O)c3ccc(-n4ccc(OCCC5(C(F)(F)F)CC5)n4)nc3N21 (single isomer, unassigned) [Compound 7, 12,12-dimethyl-8-(3-{2-[1-(trifluoromethyl)cyclopropyl]ethoxy}-1H-pyrazol-1-yl)-19-oxa-2λ^6-thia-3,9,11-triazatetracyclo[18.3.1.05,10.011,15]tetracosa-1(24),5(10),6,8,20,22-hexaene-2,2,4-trione]
EC50: < 1 µM
Max. Activity: ++ (++ is 30-60%)

CC1(C)C[C@@H]2CN1c1nc(-n3ccc(OCCC4(C(F)(F)F)CC4)n3)ccc1C(=O)NS(=O)(=O)c1ccn(n1)CCO2 (single isomer, unassigned) [Compound 302, 20,20-Dimethyl-4-(3-{2-[1-(trifluoromethyl)cyclopropyl]ethoxy}-1H-pyrazol-1-yl)-17-oxa-10λ^6-thia-1,3,9,14,22-pentaazatetracyclo[16.2.1.111,14.02,7]docosa-2(7),3,5,11(22),12-pentaene-8,10,10-trione]
EC50: > 3 µM
Max. Activity: + (+ is <30%)

CC1(C)C[C@@H]2CN1c1nc(-n3ccc(OCCC4C5(CC5)C45CC5)n3)ccc1C(=O)NS(=O)(=O)c1cccc(n1)NCCO2 (single isomer, unassigned) [Compound 197, 8-[3-(2-{dispiro[2.0.2.1]heptan-7-yl}ethoxy)-1H-pyrazol-1-yl]-12,12-dimethyl-15-oxa-2λ^6-thia-3,9,11,18,23-pentaazatetracyclo[17.3.1.111,14.05,10]tetracosa-1(23),5(10),6,8,19,21-hexaene-2,2,4-trione]
EC50: < 1 µM
Max. Activity: +++ (+++ is >60%)

C[C@@H]1CC[C@H]2CN(c3nc(-n4ccc(OCCC5(C(F)(F)F)CC5)n4)ccc3C(=O)NS(=O)(=O)c3cccc(n3)N1)C(C)(C)C2 (single isomer, unassigned) [Compound 59, 12,12,17-trimethyl-8-(3-{2-[1-(trifluoromethyl)cyclopropyl]ethoxy}-1H-pyrazol-1-yl)-2λ^6-thia-3,9,11,18,23-pentaazatetracyclo[17.3.1.111,14.05,10]tetracosa-1(23),5(10),6,8,19,21-hexaene-2,2,4-trione]
EC50: < 1 µM
Max. Activity: +++ (+++ is >60%)

C[C@@H]1CC[C@H]2CN(c3nc(-n4ccc(OCCC5(C(F)(F)F)CC5)n4)ccc3C(=O)NS(=O)(=O)c3cccc(n3)N1)C(C)(C)C2 (single isomer, unassigned) [Compound 60, 12,12,17-trimethyl-8-(3-{2-[1-(trifluoromethyl)cyclopropyl]ethoxy}-1H-pyrazol-1-yl)-2λ^6-thia-3,9,11,18,23-pentaazatetracyclo[17.3.1.111,14.05,10]tetracosa-1(23),5(10),6,8,19,21-hexaene-2,2,4-trione]
EC50: < 1 µM
Max. Activity: +++ (+++ is >60%)
